Tested on: ROS activity
Assay: Dihydrorhodamine-123 (DHR123) fluorescence measure of oxidation due to ROS, with H2O2 as oxidant
Conditions: DBP titrated in solution against H2O2 in the presence of DHR123 (FIG. 5)
Description: The ability of DBP to inhibit ROS activity was verified both in solution and when bound to glut-pretreated pericardium, as described above, by monitoring the fluorescence of dihydrorhodamine-123 (DHR123; Molecular Probes Inc., Eugene Oreg.), which is a commonly used measure of oxidation due to ROS. Briefly, the capacity of DBP to reduce ROS activity was proven in this system by titrating DBP in solution against the oxidant hydrogen peroxide (H2O2) in the presence of DHR123.

CC(C)(C)c1cc(CCCN)cc(C(C)(C)C)c1O.Cl [DBP, 4-hydroxy-3,5-di-tert-butylphenylpropylamine hydrochloride]
oxidation signal (DHR123 fluorescence): dose-dependent inhibition of oxidation signal

Source: patent publication US10058419B2, “Oxidation resistant bioprosthetic tissues and preparation thereof” (The Children's Hospital of Philadelphia, priority 2011, dated 2018)
